Patent US6653344B2, “Pharmaceutical preparations containing a dibenzocyclooctane lignan derivative for treatment of neurodegenerative disease” (Elcom Bio Technology Co., Ltd., priority 2000, dated 2003)

Tests used:
Format in all cases: cell-based
[1] = tested on: intracellular Ca2+ ([Ca2+]i) in glutamate-damaged primary cultured rat cortical cells; assay: Measurement of Ca2+ concentration in cells (Fura-2 AM); conditions: for Protection ([Ca2+]i): compound 1 M (1 μM) for 1 hr before 100 M glutamate; for Protection ([Ca2+]i) / [Ca2+]i: 24 hr; for [Ca2+]i: compound for 1 hr, control 85.6, glutamate-treated 419.0
Description: Therefore, the effects of Ca^2+ influx by glutamate according to deoxyschizandrin, gomisin N and wuweizisu C were investigated.
(§1) Rat cortical cultures were treated with compounds at the concentration of 1 M for 1 hr before exposure to 100 M glutamate and then maintained for 24 hr. Values given represent the mean SD (n=3).

[2] = tested on: GSH-px activity in glutamate-injured primary cultured rat cortical cells; assay: Measurement of glutathione peroxidase activity (GSH-px); conditions: 24 hr; for GSH-px: compound 1 µM for 1 hr before 100 µM glutamate, control 18.7, glutamate-treated 9.2; for Protection (GSH-px activity): compound 1 M (1 uM) for 1 hr before 100 M glutamate
Description: (§2) Cells were collected by adding 0.1M potassium phosphate buffer (pH 7.4) to culture-broth-removed remainings from first cultured cortical cells. The collected cells were treated by supersonic wave for 20 seconds and were centrifuged at 4° C. with 3,000 g for 20 minutes to obtain the supernatant.
1 ml solution in test tube comprising 100 mM potassium phosphate buffer (pH 7.4), 1 mM reduced glutathione (GSH), 0.2 mM NADPH, 0.5 mM H2O2 and 1.5 units/ml of GSSG-reductase (GSSG-r) was prepared and 10 μl of cell supernatant was added and reacted. The loss of adsoption at 340 nm was assayed and the activity of GSH-px was measured.
(§3) In case glutamate is treated to first cultured cortical cells of mice, formation of NO is increased. […] When schizandrin is treated at the 1 μM concentration, it decreased NO content increased by glutamate. […] When deoxyschizandrin, gomisin N and wuweizisu C are treated at 1 uM concentration to first cultured cortical cells toxicity-induced by glutamate, those maintained about 50% of normal state activity of GSH-px and glutathione decreased by glutamate and have protective activity on the activity of antioxidant enzymes.
as §1

[3] = tested on: GSH content in glutamate-injured primary cultured rat cortical cells; assay: Measurement of total GSH (GSH+GSSG); conditions: 24 hr; for GSH: compound 1 µM for 1 hr before 100 µM glutamate, control 6.9, glutamate-treated 2.6; for Protection (GSH content): compound 1 M (1 uM) for 1 hr before 100 M glutamate
Description: as §2
In test tube, 70 μl solution containing 0.3 mM NADPH and 5 mM DTNB was prepared 0.100 μl of cell supernatant was added and final content 5 units/ml of GSSG-R was added thereto and was reacted. The increase of adsorption was measured at 412 nm for 1 minute. The content of GSH was converted and obtained by comparing the content of GSH with GSH standard. (Tietze F, Enzymatic method for quantative determination of nanogram amounts of total and oxidized glutathione, Anal Biochem 27: 502-522).
as §3, §1

[4] = tested on: MDA content in glutamate-injured primary cultured rat cortical cells; assay: Measurement of malondialdehyde (MDA) content, lipid peroxidation; conditions: for Protection (MDA content, lipid-peroxidation) / MDA: compound 1 µM for 1 hr before 100 µM glutamate, 24 hr; for MDA: control 70.2, glutamate-treated 198.2
Description: as §2
To 500 μl of cell supernatant, 500 μl of 10% trichroroacetic acid(TCA) was added and leaved for 10 minutes. The precipitated protain was removed by using centrifuge. To the supernatant, final concentration of 0.2% of thiobarbituric acid is added to prepare 1 ml of solution and reacted at 100° C. for 1 hour. Adsorption was measured at 535 nm and converted and obtained by comparing the contents of MDA with 1,1,3,3-tetraethoxypropane as standard. (Yagi K A, 1976, Simple fluorometric assay for lipoperoxide in blood plasma, Biochem Med 15: 212-216).
NO which is over-formed by glutamate and superoxide anion are each combined to form peroxynitrite. (Almeida et al. 1998). Such formed peroxynitrite with free radical which is formed by glutamate toxicity induce oxidative stress on neurons and induce lipid-peroxidation of cells. Wuweizusu C suppressed 67% of lipid-peroxidation induced by glutamate.
as §1

Compound	Protection ([Ca2+]i) [1] [%]	Protection ([Ca2+]i) ([1]; listed as gomisin N) [%]	[Ca2+]i [1] [nM]	GSH-px [2]	Protection (GSH-px activity) [2] [%]	Protection (GSH-px activity) ([2]; listed as gomisin N)	GSH [3] [μmol/mg protein]	Protection (GSH content) [3] [%]	Protection (GSH content) ([3]; listed as gomisin N)	suppression of lipid-peroxidation induced by glutamate (in words) [4]	Protection (MDA content, lipid-peroxidation) [4] [%]	MDA [4] [nmol/mg protein]	effect on Ca2+ influx by glutamate (in words) [1]	Protection (GSH-px activity) ([2]; listed as deoxyschizandrin)	Protection (GSH content) ([3]; listed as deoxyschizandrin)	Protection (GSH-px activity) ([2]; listed as wuweizisu C)	Protection (GSH content) ([3]; listed as wuweizisu C)	Protection (MDA content, lipid-peroxidation) ([4]; listed as Wuweizusu C) [%]
COc1cc2c(c(OC)c1OC)-c1c(cc3c(c1OC)OCO3)C[C@H](C)[C@H](C)C2 [Gomisin N, gomisin N]	60.3	50.3	218.0 ± 11.9	14.6 ± 4.1 μmol NADPH consumed/min/mg pro	56.8	about 50%	4.8 ± 1.3	51.2	about 50%	significantly suppressed	57.0	125.6 ± 11.1	–	–	–	–	–	–
COc1cc2c(c(OC)c1OC)-c1c(cc(OC)c(OC)c1OC)C[C@H](C)[C@H](C)C2 [Deoxyschizandrin, deoxyschizandrin]	20.5	–	350.7 ± 18.2	15.3 ± 3.0 μmol NADPH consumed/min/mg pro	62.1	–	4.7 ± 1.1	48.8	–	significantly suppressed	49.2	135.4 ± 10.7	did not significantly effect	about 50%	about 50%	–	–	–
COc1c2c(cc3c1-c1c(cc4c(c1OC)OCO4)C[C@H](C)[C@H](C)C3)OCO2 [Wuweizisu C, wuweizisu C]	67.9	–	192.6 ± 9.1	13.9 ± 3.9 μmol NADPH consumed/min/mg pro	49.5	–	4.4 ± 0.9	41.9	–	–	68.7	110.5 ± 9.0	–	–	–	about 50%	about 50%	67
